Structures can show the parent of a compound that is named as a salt. Where two headings read alike, the source gives them in different places.
Tests used:
[1] = Host cell cytotoxicity (C2C12 viability); format: cell-based, Mouse; details: mouse; for viability at 48 h, 10 µM: < 50% viability considered cytotoxic; for CC50 at 48 h: viability calculated at 10 μM
Protocol: Antiparasitic activity and cytotoxicity of compounds were determined as described before (da Silva et al., Boudreau et al.). Mouse myoblasts cell line C2C12 (ATCCCRL-1772), were maintained in high glucose (4.5 g/L glucose) Dulbecco’s modified Eagle’s medium (DMEM Gibco), supplemented with 1% penicillin–streptomycin 10,000 U/mL (Gibco) and 5% fetal bovine serum (FBS, Sigma-Aldrich) at 37 °C with 5% CO2. parasites (CAI/72 strain, DTU TcI) were maintained by weekly coinfection with C2C12 cells. For all activity assays, C2C12 cells were infected at a 10:1 parasite-to-cell ratio with culture-derived trypomastigotes, which were harvested from the supernatant of infected C2C12 cells. After adding compounds to 384-well black clear-bottom plates (Greiner cat. no. 781091), trypomastigotes (7000 parasites/well) and C2C12 cells (700 cells/well) were seeded in a total volume of 50 μL of DMEM per well in the 384-well plates. Compounds were first tested at 10 μM. […] After 48 h at 37 °C and 5% CO2, plates were fixed with 4% formaldehyde solution for at least 1 h, washed with 1× PBS, and stained with 5 μg/mL of 4′,6-diamidino-2-phenylindole (DAPI) for at least 1 h prior to reading. Plates were imaged with the automated ImageXpress MicroXL microscope (Molecular Devices) and analyzed by MetaXpress software (Molecular Devices) using a custom module optimized for this assay. Infection levels (parasites per host cell) were normalized to the positive control (40 μM BNZ) and negative control (DMSO). Antiparasitic activity (EC50) ± standard deviation (SD) and host cell cytotoxicity (C2C12 viability) values were determined from the DRC using Prism software (GraphPad Software, La Jolla, CA). Every assay has three biological replicates, each in triplicates (n = 9 data points).

T. cruzi CAI/72 strain = assay: Antiparasitic activity in C2C12 cells infected with T. cruzi CAI/72 (image-based assay); format: cell-based; details: Trypanosoma cruzi; for EC50: mean of three experiments in triplicate (n = 9) ± SD
Protocol: Antiparasitic activity and cytotoxicity of compounds were determined as described before (da Silva et al., Boudreau et al.). Mouse myoblasts cell line C2C12 (ATCCCRL-1772), were maintained in high glucose (4.5 g/L glucose) Dulbecco’s modified Eagle’s medium (DMEM Gibco), supplemented with 1% penicillin–streptomycin 10,000 U/mL (Gibco) and 5% fetal bovine serum (FBS, Sigma-Aldrich) at 37 °C with 5% CO2. parasites (CAI/72 strain, DTU TcI) were maintained by weekly coinfection with C2C12 cells. For all activity assays, C2C12 cells were infected at a 10:1 parasite-to-cell ratio with culture-derived trypomastigotes, which were harvested from the supernatant of infected C2C12 cells. After adding compounds to 384-well black clear-bottom plates (Greiner cat. no. 781091), trypomastigotes (7000 parasites/well) and C2C12 cells (700 cells/well) were seeded in a total volume of 50 μL of DMEM per well in the 384-well plates. Compounds were first tested at 10 μM. […] Plates were imaged with the automated ImageXpress MicroXL microscope (Molecular Devices) and analyzed by MetaXpress software (Molecular Devices) using a custom module optimized for this assay. Infection levels (parasites per host cell) were normalized to the positive control (40 μM BNZ) and negative control (DMSO). Antiparasitic activity (EC50) ± standard deviation (SD) and host cell cytotoxicity (C2C12 viability) values were determined from the DRC using Prism software (GraphPad Software, La Jolla, CA). Every assay has three biological replicates, each in triplicates (n = 9 data points).

recombinant Cz (cruzain) = biological target: T1, recombinant Cz (cruzain) (Trypanosoma cruzi, UniProt P25779); assay: biochemical; details: read-out: Cz inhibition (%), 10 µM
T1 construct: Cz was expressed and purified as described in da Silva et al; made in house
T1 sequence (P25779 123-337 limits assumed): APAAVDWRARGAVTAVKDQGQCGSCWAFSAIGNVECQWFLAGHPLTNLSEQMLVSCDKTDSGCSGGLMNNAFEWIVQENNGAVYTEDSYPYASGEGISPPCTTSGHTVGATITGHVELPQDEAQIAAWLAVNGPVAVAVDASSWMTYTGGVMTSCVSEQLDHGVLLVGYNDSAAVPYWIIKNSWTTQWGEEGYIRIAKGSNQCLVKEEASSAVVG
Protocol: The screening assay was performed using 1 nM of Cz diluted in 0.1 M sodium acetate pH 5.5, 1 mM dithiothreitol (DTT), and 0.01% Triton X-100. Cz was expressed and purified as described in da Silva et al. The reaction starts after 10 min incubating the enzyme with the compounds (10 μM), when adding 2.5 μM of the substrate Z-FR-AMC final concentration (Z-Phe-Arg-amidomethylcoumarin, Sigma-Aldrich, C9521) diluted in the same assay buffer (final volume of 30 μL). The experiment was performed for 10 min. […] The DRC was performed with at least nine different concentrations of the inhibitors, diluted by 2-fold serial dilution, ranging from […] to 10 μM.
All experiments were accomplished in a 384-well black microplate, using a Synergy HTX (Biotek) plate reader at 25 °C with absorption/emission wavelengths of 360/460 nm. All assays were performed in triplicate wells and DMSO was used as a vehicle control. Enzymatic activity was measured and normalized to DMSO controls, and the inhibitor E-64 (10 μM) was used as a positive control for all assays. All experiments were performed in triplicates, with at least two independent assays (n = 6 data points). IC50 values were determined through nonlinear regression. Obtained data were treated and analyzed using GraphPad Prism 9.0 (GraphPad Software, La Jolla, California).

[2] = C2C12 myoblast cells infected with trypomastigotes
[3] = intracellular amastigotes in C2C12 cells, 48 h, read-out: EC50 Tc CAI/72
[4] = 10 µM, C2C12 infected cells, read-out: Anti-Tc CAI/72 activity (%)
[5] = C2C12, read-out: Anti-Tc CAI/72 activity (%)

Structure (SMILES) | viability at 48 h, 10 µM [1, 2] [%] | inhibition at 10 µM (recombinant Cz (cruzain)) [%] | inhibition at 10 µM (T. cruzi CAI/72 strain; [4]) [%] | further results
O=C(Cn1ccnc1[N+](=O)[O-])NCc1ccccc1 [BZ, Benznidazole, reference compound] | > 100 |  |  | CC50 at 48 h [1, 2]: > 10 µM; inhibition at 40 µM (T. cruzi CAI/72 strain; 40 µM (BZ), C2C12 infected cells, read-out: Anti-Tc CAI/72 activity (%)): 81.7%; EC50 (T. cruzi CAI/72 strain; [3]): 5.79 ± 1.2 µM
C/C(=N\NC(N)=S)c1ccc(C)cc1 [Compound S1a, (E)-2-(1-(4-Tolyl)ethylidene)hydrazine-1-carbothioamide] |  | 74.8 | 42.3 | viability at 48 h, 10 µM [1]: > 100%
COc1ccc(/C(C)=N/NC(N)=S)cc1 [Compound S1b, (E)-2-(1-(4-Methoxyphenyl)ethylidene)hydrazine-1-carbothioamide] | > 100 | 87.1 | 23.2 | 
C/C(=N\NC(N)=S)c1ccc([N+](=O)[O-])cc1 [Compound S1c, (E)-2-(1-(4-Nitrophenyl)ethylidene)hydrazine-1-carbothioamide] | > 100 | 97.6 | 20.6 | 
C/C(=N\NC(N)=S)c1ccc(C(F)(F)F)cc1 [Compound S1d, (E)-2-(1-(4-(Trifluoromethyl)phenyl)ethylidene)hydrazine-1-carbothioamide] | 93.1 | 85.8 | 43.8 | 
C/C(=N\NC(N)=S)c1ccc(Br)cc1 [Compound S1f, (E)-2-(1-(4-Bromophenyl)ethylidene)hydrazine-1-carbothioamide] | > 100 | 97.1 | 45.4 | 
COc1cccc(/C(C)=N/N=C(/N)S)c1 [Compound S1g, (E)-2-(1-(3-Methoxyphenyl)ethylidene)hydrazine-1-carbothioamide] | > 100 | 95.3 | 22.3 | 
C/C(=N\NC(N)=S)c1ccc(F)c(F)c1 [Compound S1j, (E)-2-(1-(3,4-Difluorophenyl)ethylidene)hydrazine-1-carbothioamide] | > 100 | 99.8 | 49.9 | 
COc1ccc(/C(C)=N/NC(N)=S)c(OC)c1 [Compound S1k, (E,Z)-2-(1-(2,4-Dimethoxyphenyl)ethylidene)hydrazine-1-carbothioamide] | > 100 | 39.3 | 0.7 | 
C/C(Cc1cccc(Cl)c1)=N\NC(N)=S [Compound S1m, (E)-2-(1-(3-Chlorophenyl)propan-2-ylidene)hydrazine-1-carbothioamide] | > 100 | 72.3 | 69.4 | CC50 at 48 h [1, 2]: > 10 µM; EC50 (T. cruzi CAI/72 strain; [3]): 2.92 ± 0.16 µM
COc1ccc(C/C(C)=N/NC(N)=S)cc1 [Compound S1n, (E)-2-(1-(4-Methoxyphenyl)propan-2-ylidene)hydrazine-1-carbothioamide] | > 100 | 56.2 | 34.5 | 
C/C(=N\NC(N)=S)c1csc2ccccc12 [Compound S1o, (E)-2-(1-(Benzo[b]thiophen-3-yl)ethylidene)hydrazine-1-carbothioamide] | > 100 | 100 | 23.1 | 
C/C(=N\NC(N)=S)c1cc2ccccc2o1 [Compound S1p, (E)-2-(1-(Benzofuran-2-yl)ethylidene)hydrazine-1-carbothioamide] | > 100 | 99.3 | 49.7 | 
C/C(=N\Nc1nc(C)cs1)c1ccc(C)cc1 [Compound S2a, (E)-4-Methyl-2-(2-(1-(4-tolyl)ethylidene)hydrazineyl)thiazole Hydrochloride] | > 100 | 36.8 | 12.5 | 
COc1ccc(/C(C)=N/Nc2nc(C)cs2)cc1 [Compound S2b, (E)-2-(2-(1-(4-Methoxyphenyl)ethylidene)hydrazineyl)-4-methylthiazole Hydrochloride] | > 100 | 37.5 | 23.5 | 
C/C(=N\Nc1nc(C)cs1)c1ccc([N+](=O)[O-])cc1 [Compound S2c, (E)-4-Methyl-2-(2-(1-(4-nitrophenyl)ethylidene)hydrazineyl)thiazole Hydrochloride] | 99.2 | 96.7 |  | 
C/C(=N\Nc1nc(C)cs1)c1ccc(C(F)(F)F)cc1 [Compound S2d, (E)-4-Methyl-2-(2-(1-(4-(trifluoromethyl)phenyl)ethylidene)hydrazineyl)thiazole Hydrochloride] | > 100 | 41.6 |  | 
C/C(=N\Nc1nc(C)cs1)c1ccc(C#N)cc1 [Compound S2e, (E)-4-(1-(2-(4-Methylthiazol-2-yl)hydrazineylidene)ethyl)benzonitrile Hydrochloride] | > 100 | 89.8 | 22.4 | 
C/C(=N\NC(N)=[Se])c1ccc(F)c(F)c1 [Se1j, (E)-2-(1-(3,4-Difluorophenyl)ethylidene)hydrazine-1-carboselenoamide] |  | 102 |  | viability at 48 h, 10 µM [1]: 27.7%
COc1ccc(/C(C)=N/NC(N)=[Se])c(OC)c1 [Se1k, (E,Z)-2-(1-(2,4-Dimethoxyphenyl)ethylidene)hydrazine-1-carboselenoamide] |  | 92.5 |  | viability at 48 h, 10 µM [1]: 43.7%
COc1ccc(/C(C)=N/Nc2nc(C)c[se]2)c(OC)c1 [Se2k, (E,Z)-2-(2-(1-(2,4-Dimethoxyphenyl)ethylidene)hydrazineyl)-4-methyl-1,3-selenazole Hydrochloride] |  |  |  | viability at 48 h, 10 µM [1]: > 100%; inhibition at 10 µM (T. cruzi CAI/72 strain; [5]): 38.1%
C/C(=N\Nc1nc(C)c[se]1)c1ccsc1 [Se2l, (E)-4-Methyl-2-(2-(1-(thiophen-3-yl)ethylidene)hydrazineyl)-1,3-selenazole Hydrochloride] |  |  |  | viability at 48 h, 10 µM [1]: > 100%; CC50 at 48 h [1]: > 10 µM; EC50 (T. cruzi CAI/72 strain; C2C12, 48 h, read-out: EC50 Tc CAI/72, intracellular amastigotes in C2C12 cells, 48 h): 3.73 µM; inhibition at 10 µM (T. cruzi CAI/72 strain; [5]): 50.4%
C/C(=N\Nc1nc(C)c[se]1)C12CC3CC(CC(C3)C1)C2 [Se2q, 2-(2-((E)-1-((3s)-Adamantan-1-yl)ethylidene)hydrazineyl)-4-methyl-1,3-selenazole] |  |  |  | viability at 48 h, 10 µM [1]: > 100%; inhibition at 10 µM (T. cruzi CAI/72 strain; [5]): 40.6%
